These results are taken from US20050019825A9, “Common ligand mimics: pseudothiohydantoins” (priority 2002, published 2005).

The target in test [1] is dihydrodipicolinate reductase (DHPR) (Escherichia coli, UniProt P04036). Put plainly: DHPR kinetic assay, spectrophotometric oxidation of NADPH (340 nm). In kind it is biochemical. The protocol:
For DHPR analysis, the compounds were screened using a kinetic protocol that spectrophotometrically evaluates oxidation of NADPH.
Stock solutions of each of the reagents were prepared in the following concentrations. Dilutions of the stock solutions were prepared prior to running the assay in the concentrations indicated below. DHPR was diluted in 10 mM HEPES at a pH of 7.4. DHPS (dihydrodipicolinate synthase) was not diluted and was stored in eppindorf tubes.
The L-ASA (L-aspartate semialdehyde) solution was prepared in the following manner. 180 μM stock solution of ASA was prepared. 100 μl of the ASA stock solution was mixed with 150 μl of concentrated NaHCO3 and 375 μl of H2O. For use in the assay, 28.8 mM L-ASA was equal to 625 μl of the solution. The L-ASA stock solution was kept at a temperature of −20° C. After dilution, the pH of the 28.8 mM solution was checked and maintained between 1 and 2.
The DHPS reaction was monitored at 340 nm prior to and after addition of the inhibitor to detect background reaction with the inhibitor. The solution for background detection was a 945 μl solution containing 0.1 HEPES (pH 7.8), 1 mM pyruvate, 6 μM NADPH, 40 μM L-ASA, and 7 μl of 1 mg/ml DHPS at 25° C. in the volumes provided above. The sample solution was then mixed and incubated for 10 minutes. Next, 500 nM solutions of the inhibitors and enough DMSO to provide a final DMSO concentration of 5% of the total assay volume were added. The solution was mixed and incubated for an additional 6 minutes.
In DHPR samples, 5 μl of the diluted DHPR enzyme were added. The sample was mixed for 20 seconds and then the reaction was run for 10 minutes. After a 50 second lag, the samples were read in a Cary spectrophotometer at 340 nm. Reading of the samples was continued until 300 seconds. Cuvette #1 contained the control reaction (no inhibitor), and cuvette #2 contained the positive control reaction in which Cibacron Blue at 2.58 μM was substituted for inhibitor to yield 70 to 80% inhibition. The substrate was kept at a level at least 10 times the Km. The final concentration of L-ASA was about 1 mM.

Test [2] concerns the target T1, HMG CoA reductase (HMGCoAR) (UniProt P04035).
T1 sequence (P04035 1-888): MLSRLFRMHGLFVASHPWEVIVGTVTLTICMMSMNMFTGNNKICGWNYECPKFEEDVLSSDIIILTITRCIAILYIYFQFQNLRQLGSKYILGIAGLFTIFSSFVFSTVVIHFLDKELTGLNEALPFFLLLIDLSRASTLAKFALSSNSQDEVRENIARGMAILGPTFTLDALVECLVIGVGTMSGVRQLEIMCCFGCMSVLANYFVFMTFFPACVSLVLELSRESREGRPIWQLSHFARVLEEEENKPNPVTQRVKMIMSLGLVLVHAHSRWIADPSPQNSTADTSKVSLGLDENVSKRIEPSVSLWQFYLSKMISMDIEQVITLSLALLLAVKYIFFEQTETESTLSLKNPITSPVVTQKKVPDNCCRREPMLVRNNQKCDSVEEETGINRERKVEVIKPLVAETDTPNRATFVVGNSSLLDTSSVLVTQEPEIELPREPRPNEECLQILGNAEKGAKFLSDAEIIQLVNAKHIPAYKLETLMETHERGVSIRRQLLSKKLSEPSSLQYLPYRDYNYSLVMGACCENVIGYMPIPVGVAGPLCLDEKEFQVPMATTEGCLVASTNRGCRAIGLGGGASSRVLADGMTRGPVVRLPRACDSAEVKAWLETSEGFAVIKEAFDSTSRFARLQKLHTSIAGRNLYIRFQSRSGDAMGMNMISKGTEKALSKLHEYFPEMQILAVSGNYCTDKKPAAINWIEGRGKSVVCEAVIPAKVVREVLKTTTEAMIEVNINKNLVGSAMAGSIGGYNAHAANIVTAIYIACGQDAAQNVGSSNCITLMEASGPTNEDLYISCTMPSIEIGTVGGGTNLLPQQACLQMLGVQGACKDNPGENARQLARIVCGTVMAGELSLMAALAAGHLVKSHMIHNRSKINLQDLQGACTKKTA
Put plainly: HMGCoAR kinetic assay, spectrophotometric oxidation of NADPH (340 nm). In kind it is biochemical. Particulars: for IC50: common ligand mimics, Examples 23/24. The protocol:
For HMGCoAR analysis, the compounds were screened using a kinetic protocol that spectrophotometrically evaluates oxidation of NADPH.
Stock solutions of each of the reagents were prepared in the following concentrations. Dilutions of the stock solutions were prepared prior to running the assay in the concentrations indicated below. The enzyme was diluted in 1 M NaCl. To prepare the dilution buffer, 10 μl of HMGCoAR (1 mg/ml) was mixed with 133 μl of 3 M NaCl solution and 257 μl of 25 mM KH2PO4 buffer (pH 7.5; containing 50 mM NaCl, […] EDTA (ethylenediaminetetraacetic acid), and 5 mM DTT (dithiothreitol).
The HMGCoAR reaction was monitored at 340 nm prior to and after addition of the inhibitor to detect background reaction with the inhibitor. Solutions of 100 μM of the inhibitors in DMSO were prepared to provide a final DMSO concentration of 2% of the total assay volume. These solutions were incubated for 6 minutes at 25° C. in a 994 μl of a solution containing 25 mM KH2PO4, pH 7.5, 160 μM HMGCoA, 13 μM NADPH, 50 mM NaCl, 1 mM EDTA, and 5 mM DTT. The reaction was then initiated with 5 μl of HMGCoAR enzyme (1:40 dilution of 0.65 mg/ml). After the enzyme was added, the solution was mixed for 20 seconds, and the reaction was run for 10 minutes. After a 50 second lag, the samples were read in a Cary spectrophotometer at 340 nm. Reading of the samples was continued until 300 seconds. Cuvette #1 contained the control reaction (no inhibitor), and cuvette #2 contained the positive control reaction in which Cibacron Blue at 2.05 μM was substituted for inhibitor to yield 50 to 70% inhibition. The substrate was kept at a level at least 10 times the Km.

Where [3] appears, read: common ligand mimics, Examples 23/24 (FIG. 5, FIG. 6), read-out: IC50 for DHPR.

The structures appear in SMILES notation. Where two headings read alike, the source gives them in different places.

dihydrodipicolinate reductase (DHPR), sequence (P04036 whole entry): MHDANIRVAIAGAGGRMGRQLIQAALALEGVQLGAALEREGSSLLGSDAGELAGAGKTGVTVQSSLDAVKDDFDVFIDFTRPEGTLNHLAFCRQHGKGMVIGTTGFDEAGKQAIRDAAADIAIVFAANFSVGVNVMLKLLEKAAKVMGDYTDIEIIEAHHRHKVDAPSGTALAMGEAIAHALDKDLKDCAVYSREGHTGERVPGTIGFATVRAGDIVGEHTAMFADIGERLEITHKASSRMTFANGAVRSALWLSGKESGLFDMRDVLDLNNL

By IC50 is commonly meant the concentration that inhibits the measured activity by half. Turning to `N=C1NC(=O)C(=Cc2ccc(C(=O)O)cc2)S1` [4-(2-imino-4-oxo-thiazolidin-5-ylidenemethyl)-benzoic acid], the IC50 in test [1] (setting [3]) is above 25 µM.
Turning to `COc1cc(O)ccc1C=C1SC(=N)NC1=O` [5-(4-hydroxy-2-methoxy-benzylidene)-2-imino-thiazolidin-4-one], the IC50 in test [1] (setting [3]) was above 75 µM. Moreover, the “inhibition of HMGCoAR (in words)” value in test [2] (Example 24 (FIG. 6)) is listed as “no inhibition”.
Regarding `COc1cc(C=C2SC(N)=NC2=O)ccc1O` [5-(4-hydroxy-3-methoxy-benzylidene)-2-imino-thiazolidin-4-one], the figures for the IC50 in test [1] and in test [2] were above 75 µM and above 100 µM, respectively.
On to `N=C1NC(=O)C(=Cc2ccc(O)c([N+](=O)[O-])c2)S1` [5-(4-hydroxy-3-nitro-benzylidene)-2-imino-thiazolidin-4-one], for which the figures for the IC50 in test [1] and in test [2] were above 100 µM and above 90 µM, respectively.
For orientation: inhibition means the percentage by which the read-out fell short of the control. `Nc1c(S(=O)(=O)O)cc(Nc2ccc(Nc3nc(Cl)nc(Nc4ccccc4S(=O)(=O)O)n3)c(S(=O)(=O)O)c2)c2c1C(=O)c1ccccc1C2=O` [Cibacron Blue, reference compound]: in test [1] (Cibacron Blue at 2.58 μM, read-out: inhibition of DHPR, positive control), the inhibition at 2.58 µM is 70 to 80%.
